Laboratory results: ChEMBL document CHEMBL1125334, “New nonpeptide angiotensin II receptor antagonists. 2. Synthesis, biological properties, and structure-activity relationships of 2-alkyl-4-(biphenylylmethoxy)quinoline derivatives” (J Med Chem, 1992)

Legend:
[1] = molecular target: T1, Type-1 angiotensin II receptor (Cavia porcellus, UniProt Q9WV26); experiment: In vitro inhibition of the specific binding of [125I]angiotensin II to a guinea pig adrenal membrane preparation
T1 sequence (Q9WV26 whole entry): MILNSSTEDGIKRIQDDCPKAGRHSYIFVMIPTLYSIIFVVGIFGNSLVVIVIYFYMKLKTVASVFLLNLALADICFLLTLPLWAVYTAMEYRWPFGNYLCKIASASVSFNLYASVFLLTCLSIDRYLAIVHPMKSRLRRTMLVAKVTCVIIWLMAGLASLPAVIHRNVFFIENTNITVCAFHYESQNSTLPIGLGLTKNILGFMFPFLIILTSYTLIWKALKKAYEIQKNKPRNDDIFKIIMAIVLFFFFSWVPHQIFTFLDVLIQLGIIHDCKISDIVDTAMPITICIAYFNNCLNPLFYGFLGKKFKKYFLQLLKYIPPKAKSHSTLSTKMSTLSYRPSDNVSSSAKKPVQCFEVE

[2] = molecular target: Angiotensin II receptor (Rattus norvegicus) (UniProt P29089+P25095+P35351); experiment: (§1) Intravenous administration to conscious rats for inhibition of pressor response induced by infusion of AII (angiotensin-II).; format: functional, organism-based
[3] = tested on: Rattus norvegicus; experiment: as §1; format: functional

| SMILES | IC50 [1] [nM] | ED50 [2] [mg/kg] | ED50 [3] [mg/kg] |
| --- | --- | --- | --- |
| Cc1nc2ccccc2c(OCc2ccc(-c3ccccc3-c3nnn[nH]3)cc2)c1C | 4600 |  |  |
| CCCc1cc(OCc2ccc(-c3ccccc3C(=O)O)cc2)c2ccccc2n1 | 600 |  |  |
| Cc1cc(OCc2ccc(-c3ccccc3C(=O)O)cc2)c2ccccc2n1 | 180 |  |  |
| CCc1cc(OCc2ccc(-c3ccccc3-c3nn[nH]n3)cc2)c2cc(C(=O)OC)ccc2n1 | 66 | 2.1 |  |
| Cc1cc(OCc2ccc(-c3ccccc3-c3nn[nH]n3)cc2)c2ccccc2n1 |  | 0.73 |  |
| CCc1cc(OCc2ccc(-c3ccccc3-c3nn[nH]n3)cc2)c2cc(OC)ccc2n1 | 22 | 0.32 |  |
| c1ccc(-c2nnn[nH]2)c(-c2ccc(COc3ccnc4ccccc34)cc2)c1 | 6300 |  |  |
| CCCCc1nc(Cl)c(CO)n1Cc1ccc(-c2ccccc2C(=O)O)cc1 | 430 |  |  |
| CCc1cc(OCc2ccc(-c3ccccc3-c3nnn[nH]3)cc2)c2cc(C#N)ccc2n1 | 360 |  |  |
| Cc1cc(SCc2ccc(-c3ccccc3-c3nn[nH]n3)cc2)c2ccccc2n1 | 370 |  |  |
| CCc1cc(OCc2ccc(-c3ccccc3-c3nn[nH]n3)cc2)c2ccc(C#N)cc2n1 | 460 | > 5 |  |
| CCc1cc(OCc2ccc(-c3ccccc3-c3nn[nH]n3)cc2)c2cc(C(F)(F)F)ccc2n1 |  | > 5 |  |
| CCc1cc(OCc2ccc(-c3ccccc3-c3nn[nH]n3)cc2)c2cc(C#N)ccc2n1 |  | > 5 |  |
| CCc1cc(OCc2ccc(-c3ccccc3-c3nn[nH]n3)cc2)c2ccc(C)cc2n1 | 140 | > 5 |  |
| CCCCc1nc(Cl)c(CO)n1Cc1ccc(-c2ccccc2-c2nn[nH]n2)cc1 [LOSARTAN POTASSIUM] | 18 |  |  |
| CCc1cc(OCc2ccc(-c3ccccc3-c3nn[nH]n3)cc2)c2cc(OCCF)ccc2n1 | 70 | 0.34 |  |
| CCc1cc(OCc2ccc(-c3ccccc3-c3nn[nH]n3)cc2)c2cc(OC(C)C)ccc2n1 |  | 0.18 |  |
| CCc1cc(OCc2ccc(-c3ccccc3-c3nn[nH]n3)cc2)c2cccc(C(F)(F)F)c2n1 |  | > 5 |  |

| SMILES | IC50 [1] [nM] | ED50 [2] [mg/kg] | ED50 [3] [mg/kg] |
| --- | --- | --- | --- |
| CCc1cc(OCc2ccc(-c3ccccc3-c3nnn[nH]3)cc2)c2ccccc2n1 | 31 |  | 1 |
| Cc1cc(OCc2ccc(-c3ccccc3-c3nn[nH]n3)cc2)c2cccc(C)c2n1 | 310 | > 5 |  |
| CCc1cc(OCc2ccc(-c3ccccc3-c3nnn[nH]3)cc2)c2cc(OC(C)C)ccc2n1 | 26 |  |  |
| Cc1ccc2nc(C)cc(OCc3ccc(-c4ccccc4-c4nn[nH]n4)cc3)c2c1 | 470 | > 5 |  |
| CCc1cc(OCc2ccc(-c3ccccc3-c3nn[nH]n3)cc2)c2ccc(Cl)cc2n1 | 160 | > 5 |  |
| CCc1cc(OCc2ccc(-c3ccccc3-c3nnn[nH]3)cc2)c2c(Cl)cccc2n1 | 120 |  |  |
| CCc1cc(OCc2ccc(-c3ccccc3-c3nn[nH]n3)cc2)c2cccc(OC)c2n1 | 960 | > 5 |  |
| Cc1cc(CCc2ccc(-c3ccccc3-c3nnn[nH]3)cc2)c2ccccc2n1 | 270 |  |  |
| CCCCc1nc(Cl)c(CO)n1Cc1ccc(-c2ccccc2-c2nnn[nH]2)cc1 |  | 0.65 |  |
| CCc1cc(OCc2ccc(-c3ccccc3-c3nn[nH]n3)cc2)c2c(Cl)cccc2n1 |  | > 5 |  |
| CCc1cc(OCc2ccc(-c3ccccc3-c3nn[nH]n3)cc2)c2cc(OCC(F)(F)F)ccc2n1 | 26 | 0.71 |  |
| CCc1cc(OCc2ccc(-c3ccccc3-c3nnn[nH]3)cc2)c2cc(C(F)(F)F)ccc2n1 | 860 |  |  |
| CCc1cc(OCc2ccc(-c3ccccc3-c3nnn[nH]3)cc2)c2c(C#N)cccc2n1 | 60 |  |  |
| CCc1cc(OCc2ccc(-c3ccccc3-c3nn[nH]n3)cc2)c2ccc(OC)cc2n1 |  | > 5 |  |
| CCc1cc(OCc2ccc(-c3ccccc3-c3nnn[nH]3)cc2)c2ccc(OC)cc2n1 | 220 |  |  |
| CCc1cc(OCc2ccc(-c3ccccc3-c3nnn[nH]3)cc2)c2cccc(Cl)c2n1 | 140 |  |  |
| CCc1cc(OCc2ccc(-c3ccccc3-c3nnn[nH]3)cc2)c2c(C)cccc2n1 | 13 |  |  |
